# Assay results from patent US20260232767A1, “INTERLEUKIN-23 RECEPTOR ANTAGONIST PEPTIDES FOR USE IN THE TREATMENT OF PSORIASIS” (Janssen Pharmaceutica NV, priority 2023, published 2026).
# System: subjects with moderate-to-severe plaque psoriasis
# Assay: Safety, adverse events, Example 2 through Week 56
# Format: in vivo, human
# Settings: 100 mg BID
# Excerpt: The LTE safety analysis was based on randomized participants in Example who entered the present long-term extension study and received at least one dose of study intervention (including a partial dose) during the study period.
compound,measurement,setting,value
"CC(=O)NCCCC[C@@H]1NC(=O)[C@H](Cc2c[nH]c3c(C)cccc23)NC(=O)[C@H]([C@@H](C)O)NC(=O)[C@H](CC(N)=O)NC(=O)[C@@H](NC(C)=O)C(C)(C)SSC(C)(C)[C@@H](C(=O)N[C@@H](Cc2ccc(OCCN)cc2)C(=O)N[C@@H](Cc2ccc3ccccc3c2)C(=O)NC2(C(=O)N[C@@H](CCC(=O)O)C(=O)N[C@@H](CC(N)=O)C(=O)N[C@@H](Cc3cccnc3)C(=O)N(C)CC(N)=O)CCOCC2)NC1=O [IL-23 receptor antagonist peptide, Ac-[Pen]*-N-T-[W(7-Me)]-[Lys(Ac)]-[Pen]*-Phe[4-(2-aminoethoxy)]-[2-Nal]-[THP]-E-N-[3-Pal]-Sarc-NH2 (*[Pen]-[Pen]* formdisulfidebond)]",Subjects with treatment-emergent AE: Headache,Week 16-56,0
same,Subjects with treatment-emergent AE: Investigations,Week 16-56,4
same,Subjects with treatment-emergent AE: Meniscus injury,Week 16-56,0
same,Subjects with treatment-emergent AE: Sinusitis,Week 16-56,0
same,Subjects with treatment-emergent AE: Vomiting,Week 16-56,0
same,Subjects with treatment-emergent serious AE: Cardiac disorders,Week 16-56,0
same,Subjects with treatment-emergent serious AE: Cerebrovascular accident,Week 16-56,0
same,Subjects with treatment-emergent serious AE: Coronary artery disease,Week 16-56,0
same,Subjects with treatment-emergent serious AE: Diverticulitis,Week 16-56,0
same,Subjects with treatment-emergent serious AE: Foot deformity,Week 16-56,0
same,Subjects with treatment-emergent serious AE: General disorders and administration site conditions,Week 16-56,0
same,Subjects with treatment-emergent serious AE: Infections and infestations,Week 16-56,0
same,"Subjects with treatment-emergent serious AE: Injury, poisoning and procedural complications",Week 16-56,0
same,Subjects with treatment-emergent serious AE: Intervertebral disc protrusion,Week 16-56,0
same,Subjects with treatment-emergent serious AE: Ligament injury,Week 16-56,0
same,Subjects with treatment-emergent serious AE: Musculoskeletal and connective tissue disorders,Week 16-56,0
same,Subjects with treatment-emergent serious AE: Nervous system disorders,Week 16-56,0
same,Subjects with treatment-emergent serious AE: Non-cardiac chest pain,Week 16-56,0
same,"Subjects with treatment-emergent serious AE: Respiratory, thoracic and mediastinal disorders",Week 16-56,0
same,Subjects with treatment-emergent serious AE: Tonsillar hypertrophy,Week 16-56,0
same,Subjects with treatment-emergent serious AE: Ventricular dysfunction,Week 16-56,0
same,Acrochordon: number of subjects,through Week 56,0
same,Actinic keratosis: number of subjects,through Week 56,0
same,Alopecia: number of subjects,through Week 56,0
same,Asthenia: number of subjects,through Week 56,0
same,Asthma: number of subjects,through Week 56,0
same,Atrioventricular block first degree: number of subjects,through Week 56,0
same,Basal cell carcinoma: number of subjects,through Week 56,0
same,Blood and lymphatic system disorders: % of subjects,through Week 56,(2.4%)
same,Blood and lymphatic system disorders: number of subjects,through Week 56,1
same,Bronchitis chronic: number of subjects,through Week 56,0
same,Bundle branch block right: % of subjects,through Week 56,(2.4%)
same,Bundle branch block right: number of subjects,through Week 56,1
same,Cardiac disorders: % of subjects,through Week 56,(2.4%)
same,Cardiac disorders: number of subjects,through Week 56,1
same,Chills: number of subjects,through Week 56,0
same,Cholelithiasis: number of subjects,through Week 56,0
same,Chronic obstructive pulmonary disease: number of subjects,through Week 56,0
same,Coronary artery disease: number of subjects,through Week 56,0
same,Cough: % of subjects,through Week 56,(4.8%)
same,Cough: number of subjects,through Week 56,2
same,Decreased appetite: number of subjects,through Week 56,0
same,Depression: % of subjects,through Week 56,(2.4%)
same,Depression: number of subjects,through Week 56,1
same,Dermal cyst: number of subjects,through Week 56,0
same,Dermatitis acneiform: number of subjects,through Week 56,0
same,Dermatitis contact: % of subjects,through Week 56,(2.4%)
same,Dermatitis contact: number of subjects,through Week 56,1
same,Diabetes mellitus: number of subjects,through Week 56,0
same,Diffuse alopecia: number of subjects,through Week 56,0
same,Dysuria: number of subjects,through Week 56,0
same,Ear and labyrinth disorders: % of subjects,through Week 56,(2.4%)
same,Ear and labyrinth disorders: number of subjects,through Week 56,1
same,Endocrine disorders: number of subjects,through Week 56,0
same,Eye disorders: number of subjects,through Week 56,0
same,Eyelid skin dryness: number of subjects,through Week 56,0
same,Fatigue: % of subjects,through Week 56,(4.8%)
same,Fatigue: number of subjects,through Week 56,2
same,General disorders and administration site conditions: % of subjects,through Week 56,(9.5%)
same,General disorders and administration site conditions: number of subjects,through Week 56,4
same,Goiter: number of subjects,through Week 56,0
same,Haemochromatosis: number of subjects,through Week 56,0
same,Hand dermatitis: number of subjects,through Week 56,0
same,Hematuria: number of subjects,through Week 56,0
same,Hepatobiliary disorders: number of subjects,through Week 56,0
same,Hypercholesterolemia: number of subjects,through Week 56,0
same,Hyperglycemia: % of subjects,through Week 56,(4.8%)
same,Hyperglycemia: number of subjects,through Week 56,2
same,Hyperlipidemia: number of subjects,through Week 56,0
same,Hypertension: % of subjects,through Week 56,(4.8%)
same,Hypertension: number of subjects,through Week 56,2
same,Hypertransaminasemia: number of subjects,through Week 56,0
same,Hypertriglyceridemia: number of subjects,through Week 56,0
same,Hypoacusis: % of subjects,through Week 56,(2.4%)
same,Hypoacusis: number of subjects,through Week 56,1
same,Immune system disorders: % of subjects,through Week 56,(2.4%)
same,Immune system disorders: number of subjects,through Week 56,1
same,Influenza like illness: number of subjects,through Week 56,0
same,Insomnia: number of subjects,through Week 56,0
same,Intertrigo: % of subjects,through Week 56,(2.4%)
same,Intertrigo: number of subjects,through Week 56,1
same,Ketonuria: % of subjects,through Week 56,(2.4%)
same,Ketonuria: number of subjects,through Week 56,1
same,Leukocyturia: number of subjects,through Week 56,0
same,Leukopenia: number of subjects,through Week 56,0
same,Libido decreased: number of subjects,through Week 56,0
same,Liver disorder: number of subjects,through Week 56,0
same,Lymphopenia: number of subjects,through Week 56,0
same,Menopause: number of subjects,through Week 56,0
same,Metabolism and nutrition disorders: % of subjects,through Week 56,(4.8%)
same,Metabolism and nutrition disorders: number of subjects,through Week 56,2
same,"Neoplasms benign, malignant and unspecified (incl cysts and polyps): % of subjects",through Week 56,(4.8%)
same,"Neoplasms benign, malignant and unspecified (incl cysts and polyps): number of subjects",through Week 56,2
same,Nephrolithiasis: number of subjects,through Week 56,0
same,Neutropenia: number of subjects,through Week 56,0
same,Night sweats: number of subjects,through Week 56,0
same,Non-cardiac chest pain: number of subjects,through Week 56,0
same,Ocular cyst: number of subjects,through Week 56,0
same,Oedema peripheral: % of subjects,through Week 56,(4.8%)
same,Oedema peripheral: number of subjects,through Week 56,2
same,Oropharyngeal pain: number of subjects,through Week 56,0
same,Procedural pain: % of subjects,through Week 56,(2.4%)
same,Procedural pain: number of subjects,through Week 56,1
same,Productive cough: % of subjects,through Week 56,(2.4%)
same,Productive cough: number of subjects,through Week 56,1
same,Proteinuria: % of subjects,through Week 56,(2.4%)
same,Proteinuria: number of subjects,through Week 56,1
same,Pruritus: number of subjects,through Week 56,0
same,Psoriasis: % of subjects,through Week 56,(4.8%)
same,Psoriasis: number of subjects,through Week 56,2
same,Psychiatric disorders: % of subjects,through Week 56,(2.4%)
same,Psychiatric disorders: number of subjects,through Week 56,1
same,Pyrexia: % of subjects,through Week 56,(2.4%)
same,Pyrexia: number of subjects,through Week 56,1
same,Rash pruritic: number of subjects,through Week 56,0
same,Renal and urinary disorders: % of subjects,through Week 56,(4.8%)
same,Renal and urinary disorders: number of subjects,through Week 56,2
same,Renal mass: number of subjects,through Week 56,0
same,"Respiratory, thoracic and mediastinal disorders: % of subjects",through Week 56,(9.5%)
same,"Respiratory, thoracic and mediastinal disorders: number of subjects",through Week 56,4
same,Retinal vein occlusion: number of subjects,through Week 56,0
